In patent US10428104B2, “Substituted nucleoside derivatives useful as anticancer agents” (Pfizer Inc., priority 2015, dated 2019):

Tests used:
[1] = biological target: PRMT5/MEP50 protein complex (Homo sapiens (Human), UniProt O14744); assay: PRMT5 biochemical assay (3H-SAM methylation of H4(1-21) peptide, filter plate scintillation counting); details: PRMT5 enzyme inhibition; 10 nM PRMT5/MEP50 complex, 200 nM H4(1-21) peptide, 1 uM SAM, 25 minute incubation at room temperature
How it was run: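 Flag-PRMT5/MEP50 was co-expressed in Sf21 cells and Flag-affinity purified. Reactions used 10 nM complex, 200 nM H4(1-21) peptide and 1 uM 3H-SAM (final) in 50 mM Tris pH 8.5, 50 mM NaCl, 5 mM MgCl2, 1 mM EDTA and 1 mM TCEP, run 25 min at room temperature. Reactions were TCA-stopped, filter-captured and scintillation-counted; IC50 came from a 4-parameter fit.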

[2] = test system: A549 lung adenocarcinoma cells; assay: A549 proliferation assay (Cell Titer Glo, 7 days); type: cell-based; details: Homo sapiens, 168 h, 7 days with compound, cell viability by Cell Titer Glo (ATP)
Procedure: A549 lung adenocarcinoma cells (American Type CuIture Collection) were maintained in DMEM growth media (Life Technologies) supplemented with 10% v/v heat inactivated fetal bovine serum (Sigma) and cultured at 37° C., 5% CO2. Exponentially growing A549 cells were plated in 96-well black tissue culture treated plates (Corning) at a density of 2500 cells/ml in a volume of 100 μl culture media and allowed to adhere overnight at 37° C., 5% CO2. The following day, compound plates were prepared by making nine-point 3.3-fold dilutions in DMSO with a top concentration of 10 mM. Compounds were further diluted in culture media and 11 μl was added to the cells (final top assay concentration was 10 μM and DMSO was […]). Cells were incubated with compound at 37° C., 5% CO2 for 7 days with media and compound replacement on day 4. Cell viability was assayed on Day 7 by adding 100 μl Cell Titer Glo (Promega) reagent to the plate to measure the amount of ATP present in the cells. Luminescence was read using the Envision 2104 Multilabel Reader (Perkin Elmer).
Results for the A549 proliferation assay of examples are summarized in Table 2, shown as IC50 values in μM.

Sequence of PRMT5/MEP50 protein complex (O14744 other isoform, or with tags, fused parts or gaps): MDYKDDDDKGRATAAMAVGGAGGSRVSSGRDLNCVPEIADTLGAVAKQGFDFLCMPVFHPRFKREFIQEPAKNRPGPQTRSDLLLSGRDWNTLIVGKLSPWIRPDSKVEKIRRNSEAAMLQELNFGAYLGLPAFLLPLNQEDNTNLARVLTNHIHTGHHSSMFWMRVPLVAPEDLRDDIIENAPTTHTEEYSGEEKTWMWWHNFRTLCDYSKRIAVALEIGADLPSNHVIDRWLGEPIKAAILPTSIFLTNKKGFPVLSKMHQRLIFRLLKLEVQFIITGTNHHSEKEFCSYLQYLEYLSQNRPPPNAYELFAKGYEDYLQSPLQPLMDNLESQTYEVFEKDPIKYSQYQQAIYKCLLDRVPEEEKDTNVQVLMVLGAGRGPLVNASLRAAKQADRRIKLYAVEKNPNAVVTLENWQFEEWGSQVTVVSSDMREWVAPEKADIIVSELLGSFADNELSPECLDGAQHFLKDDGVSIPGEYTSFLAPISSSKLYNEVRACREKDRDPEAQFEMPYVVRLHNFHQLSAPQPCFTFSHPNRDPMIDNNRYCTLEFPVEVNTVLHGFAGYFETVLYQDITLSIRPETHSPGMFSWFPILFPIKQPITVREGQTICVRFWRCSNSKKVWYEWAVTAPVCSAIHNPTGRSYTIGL
Sequence of PRMT5/MEP50 protein complex (Q9BQA1 whole entry partner): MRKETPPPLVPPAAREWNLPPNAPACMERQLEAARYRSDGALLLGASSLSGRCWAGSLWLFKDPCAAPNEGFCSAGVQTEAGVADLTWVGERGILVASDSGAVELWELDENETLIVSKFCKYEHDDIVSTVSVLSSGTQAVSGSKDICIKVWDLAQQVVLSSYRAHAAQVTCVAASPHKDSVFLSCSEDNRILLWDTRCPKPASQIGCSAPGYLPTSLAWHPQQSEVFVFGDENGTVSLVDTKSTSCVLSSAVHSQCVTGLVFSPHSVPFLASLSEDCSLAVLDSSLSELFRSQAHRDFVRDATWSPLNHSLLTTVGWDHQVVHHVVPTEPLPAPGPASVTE

Row | SMILES | IC50 [1] [nM] | IC50 [2] [nM]
1 | CCC[C@@H](O)[C@H]1O[C@@H](n2ccc3c(C)nc(N)nc32)[C@H](O)[C@@H]1O [Example 63, (2R,3R,4S,5R)-2-(2-amino-4-methyl-7H-pyrrolo[2,3-d]pyrimidin-7-yl)-5-((R)-1-hydroxybutyl)tetrahydrofuran-3,4-diol] | 38 | 3400
2 | Cc1nc(N)nc2c1ccn2[C@@H]1O[C@H]([C@H](O)c2ccc(F)cc2)[C@@H](O)[C@H]1O [Example 64, (2R,3R,4S,5R)-2-(2-amino-4-methyl-7H-pyrrolo[2,3-d]pyrimidin-7-yl)-5-((R)-(4-fluorophenyl)(hydroxy)methyl)tetrahydrofuran-3,4-diol] | 5 | 18
3 | Nc1ncnc2c1c(F)cn2[C@@H]1O[C@H]([C@H](O)c2ccc(F)cn2)[C@@H](O)[C@H]1O [Example 83, (2R,3R,4S,5R)-2-(4-amino-5-fluoro-7H-pyrrolo[2,3-d]pyrimidin-7-yl)-5-((R)-(5-fluoropyridin-2-yl)(hydroxy)methyl)tetrahydrofuran-3,4-diol] | 13 | 323
4 | Nc1ncnc2c1ccn2[C@@H]1O[C@H]([C@H](O)c2ccc(F)c(F)c2)[C@@H](O)[C@H]1O [Example 85, (2R,3R,4S,5R)-2-(4-amino-7H-pyrrolo[2,3-d]pyrimidin-7-yl)-5-((R)-(3,4-difluorophenyl)(hydroxy)methyl)tetrahydrofuran-3,4-diol] | 1 | 6
5 | Nc1ncnc2c1ccn2[C@@H]1O[C@H]([C@H](O)c2ccc(F)cc2)[C@@H](O)[C@H]1O [Example 86, (2R,3R,4S,5R)-2-(4-amino-7H-pyrrolo[2,3-d]pyrimidin-7-yl)-5-((R)-(4-fluorophenyl)(hydroxy)methyl)tetrahydrofuran-3,4-diol] | 2 | 9
6 | Nc1ncnc2c1ccn2[C@@H]1O[C@H]([C@H](O)c2ccc(Cl)cc2)[C@@H](O)[C@H]1O [Example 87, (2R,3R,4S,5R)-2-(4-amino-7H-pyrrolo[2,3-d]pyrimidin-7-yl)-5-((R)-(4-chlorophenyl)(hydroxy)methyl)tetrahydrofuran-3,4-diol] | 1 | 5
7 | Nc1ncnc2c1ccn2[C@@H]1O[C@H]([C@H](O)c2ccc(Cl)c(F)c2)[C@@H](O)[C@H]1O [Example 88, (2R,3R,4S,5R)-2-(4-amino-7H-pyrrolo[2,3-d]pyrimidin-7-yl)-5-((R)-(4-chloro-3-fluorophenyl)(hydroxy)methyl)tetrahydrofuran-3,4-diol] | 1 | 3
8 | Cc1ncnc2c1ccn2[C@@H]1O[C@H]([C@H](F)c2ccc(F)c(F)c2)[C@@H](O)[C@H]1O [Example 92, (2S,3S,4R,5R)-2-((R)-(3,4-difluorophenyl)fluoromethyl)-5-(4-methyl-7H-pyrrolo[2,3-d]pyrimidin-7-yl)tetrahydrofuran-3,4-diol] | 14 | 257
9 | Cc1ncnc2c1c(F)cn2[C@@H]1O[C@H]([C@H](O)c2ccc(F)cc2)[C@@H](O)[C@H]1O [Example 98, (2R,3R,4S,5R)-2-(5-fluoro-4-methyl-7H-pyrrolo[2,3-d]pyrimidin-7-yl)-5-((R)-(4-fluorophenyl)(hydroxy)methyl)tetrahydrofuran-3,4-diol] | 18 | 250
10 | Cc1nc(C)c2ccn([C@@H]3O[C@H]([C@H](O)c4ccc(F)cc4)[C@@H](O)[C@H]3O)c2n1 [Example 99, (2R,3R,4S,5R)-2-(2,4-dimethyl-7H-pyrrolo[2,3-d]pyrimidin-7-yl)-5-((R)-(4-fluorophenyl)(hydroxy)methyl)tetrahydrofuran-3,4-diol] | 21 | 364
11 | Cc1ncnc2c1ccn2[C@@H]1O[C@H]([C@H](O)c2cccc3c2CNCC3)[C@@H](O)[C@H]1O [Example 112, (2R,3S,4R,5R)-2-((R)-hydroxy(1,2,3,4-tetrahydroisoquinolin-8-yl)methyl)-5-(4-methyl-7H-pyrrolo[2,3-d]pyrimidin-7-yl)tetrahydrofuran-3,4-diol] | 1 | 350
12 | O[C@@H]1[C@H](O)[C@@H]([C@H](O)c2ccc(Cl)c(F)c2)O[C@H]1n1ccc2cncnc21 [Example 115, (2R,3S,4R,5R)-2-((R)-(4-chloro-3-fluorophenyl)(hydroxy)methyl)-5-(7H-pyrrolo[2,3-d]pyrimidin-7-yl)tetrahydrofuran-3,4-diol] | 2 | 46
13 | N[C@H](c1ccc(Cl)c(F)c1)[C@H]1O[C@@H](n2ccc3cncnc32)[C@H](O)[C@@H]1O [Example 116, (2R,3S,4R,5R)-2-((R)-amino(4-chloro-3-fluorophenyl)methyl)-5-(7H-pyrrolo[2,3-d]pyrimidin-7-yl)tetrahydrofuran-3,4-diol] | 5 | 1640
14 | O[C@@H]1[C@H](O)[C@@H]([C@H](O)c2ccc(F)c(F)c2)O[C@H]1n1ccc2cncnc21 [Example 117, (2R,3S,4R,5R)-2-((R)-(3,4-difluorophenyl)(hydroxy)methyl)-5-(7H-pyrrolo[2,3-d]pyrimidin-7-yl)tetrahydrofuran-3,4-diol] | 5 | 92
15 | Nc1ncnc2c1c(I)cn2[C@@H]1O[C@H]([C@H](O)c2ccc(F)c(F)c2)[C@@H](O)[C@H]1O [Example 119, (2R,3R,4S,5R)-2-(4-amino-5-iodo-7H-pyrrolo[2,3-d]pyrimidin-7-yl)-5-((R)-(3,4-difluorophenyl)(hydroxy)methyl)tetrahydrofuran-3,4-diol] | 7 | 322
